# According to publication PMC10349922 (Bioconjugate chemistry, 2023):
# Biological target: human Galectin-3 (Gal-3); His-Galectin-3 (Homo sapiens, UniProt P17931)
# Test: competitive enzyme-linked lectin assay
# Assay type: binding
# Conditions: His-Galectin-3 vs S0G2-BSA coated plate, PBS, r.t.
# human Galectin-3 (Gal-3); His-Galectin-3, sequence (P17931 2-250): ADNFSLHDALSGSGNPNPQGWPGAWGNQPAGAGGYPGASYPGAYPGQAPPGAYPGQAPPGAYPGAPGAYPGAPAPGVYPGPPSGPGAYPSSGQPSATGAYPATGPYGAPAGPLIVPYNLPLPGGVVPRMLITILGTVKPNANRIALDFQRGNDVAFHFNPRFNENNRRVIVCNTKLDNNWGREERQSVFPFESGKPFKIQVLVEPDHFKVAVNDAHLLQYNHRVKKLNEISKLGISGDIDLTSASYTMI
compound,measurement,value
"CC(=O)N[C@@H]1[C@@H](O)[C@H](O[C@@H]2O[C@H](CO)[C@@H](O[C@@H]3O[C@H](CO[C@H]4O[C@H](CO)[C@@H](O)[C@H](O)[C@@H]4O[C@@H]4O[C@H](CO)[C@@H](O[C@@H]5O[C@H](CO)[C@H](O)[C@H](O)[C@H]5O)[C@H](O)[C@H]4NC(C)=O)[C@@H](O)[C@H](O[C@H]4O[C@H](CO)[C@@H](O)[C@H](O)[C@@H]4O[C@@H]4O[C@H](CO)[C@@H](O[C@@H]5O[C@H](CO)[C@H](O)[C@H](O)[C@H]5O)[C@H](O)[C@H]4NC(C)=O)[C@@H]3O)[C@H](O)[C@H]2NC(C)=O)[C@@H](CO)O[C@H]1NC(=O)C[C@H](N)C(=O)O [compound 1, S0G2-Asn]",IC50,7.8 µM
